According to ChEMBL document CHEMBL1921748, “Renin inhibitors for the treatment of hypertension: design and optimization of a novel series of spirocyclic piperidines” (Bioorg Med Chem Lett, 2011):

Columns and labels:
[1] = Apparent permeability of the compound; type: ADME; settings: not told
[2] = Oral bioavailability in Sprague-Dawley rat at 3 mg/kg; type: ADME, organism-based; settings: in vivo
[3] = tested on: Rattus norvegicus; experiment: Volume of distribution at steady state in Sprague-Dawley rat at 0.3 mg/kg, po; type: ADME, organism-based; design: dose 0.3 mg/kg, route oral; settings: in vivo
[4] = Clearance in Sprague-Dawley rat at 0.3 mg/kg, po; type: ADME, organism-based; design: dose 0.3 mg/kg, route oral; settings: in vivo
[5] = Oral bioavailability in Sprague-Dawley rat at 0.3 mg/kg; type: ADME, organism-based; settings: in vivo
[6] = Oral bioavailability in Sprague-Dawley rat at 30 mg/kg; type: ADME, organism-based; settings: in vivo
[7] = Half life in Sprague-Dawley rat at 0.3 mg/kg, po; type: ADME, organism-based; design: dose 0.3 mg/kg, route oral; settings: in vivo
[8] = Metabolic stability in human liver microsomes assessed as compound remaining at 1 uM after 30 mins in presence of NADPH; type: ADME, Microsome; settings: read-out: Stability
[9] = Metabolic stability in Sprague-Dawley rat hepatocytes assessed as compound remaining at 10 uM after 2 hrs; type: ADME, cell-based, Hepatocyte; settings: read-out: Stability
[10] = Metabolic stability in rat liver microsomes assessed as compound remaining at 1 uM after 30 mins in presence of NADPH; type: ADME, Microsome; settings: read-out: Stability
[11] = in vitro; settings: human, liver microsomes
[12] = Metabolic stability in rhesus monkey liver microsomes assessed as compound remaining at 1 uM after 30 mins in presence of NADPH; type: ADME, Macaca mulatta, Microsome; settings: read-out: Stability
[13] = Metabolic stability in dog liver microsomes assessed as compound remaining at 1 uM after 30 mins in presence of NADPH; type: ADME, Canis lupus familiaris, Microsome; settings: read-out: Stability
[14] = Oral bioavailability in Beagle dog at 3 mg/kg; type: ADME, organism-based, Canis lupus familiaris; settings: in vivo
[15] = Clearance in Sprague-Dawley rat at 3 mg/kg, po and 0.5 mg/kg, iv; type: ADME, organism-based; settings: in vivo
[16] = Half life in rhesus monkey at 3 mg/kg, po and 1 mg/kg, iv; type: ADME, organism-based, Macaca mulatta; settings: in vivo
[17] = AUC in Beagle dog at 3 mg/kg, po; type: ADME, organism-based, Canis lupus familiaris; design: dose 3 mg/kg, route oral; settings: plasma
[18] = AUC in Sprague-Dawley rat at 3 mg/kg, po; type: ADME, organism-based; design: dose 3 mg/kg, route oral; settings: plasma
[19] = Volume of distribution at steady state in rhesus monkey at 3 mg/kg, po and 1 mg/kg, iv; type: ADME, organism-based, Macaca mulatta; settings: in vivo, read-out: Vdss
[20] = Half life in Beagle dog at 3 mg/kg, po and 1 mg/kg, iv; type: ADME, organism-based, Canis lupus familiaris; settings: in vivo
[21] = Clearance in Beagle dog at 3 mg/kg, po and 1 mg/kg, iv; type: ADME, organism-based, Canis lupus familiaris; settings: in vivo
[22] = Oral bioavailability in rhesus monkey at 3 mg/kg; type: ADME, organism-based, Macaca mulatta; settings: in vivo
[23] = AUC in rhesus monkey at 3 mg/kg, po; type: ADME, organism-based, Macaca mulatta; design: dose 3 mg/kg, route oral; settings: plasma
[24] = Volume of distribution at steady state in Beagle dog at 3 mg/kg, po and 1 mg/kg, iv; type: ADME, organism-based, Canis lupus familiaris; settings: in vivo, read-out: Vdss
[25] = Half life in Sprague-Dawley rat at 3 mg/kg, po and 0.5 mg/kg, iv; type: ADME, organism-based; settings: in vivo
[26] = Clearance in rhesus monkey at 3 mg/kg, po and 1 mg/kg, iv; type: ADME, organism-based, Macaca mulatta; settings: in vivo
[27] = Volume of distribution at steady state in Sprague-Dawley rat at 3 mg/kg, po and 0.5 mg/kg, iv; type: ADME, organism-based; settings: in vivo, read-out: Vdss

COCCCc1cc(CN(C(=O)[C@H]2CNCC[C@]2(O)c2ccc(F)c(F)c2)C2CC2)cc(OCCOC)c1
Papp [1]: 21.5 ×10⁻⁶ cm/s
bioavailability [2]: 29%
Vdss [3]: 5 L/kg
CL/F [4]: 36 mL/min/kg
bioavailability [5]: 17%
bioavailability [6]: 18%
half-life [7]: 1.5 h

Cc1cccc(CN(C(=O)[C@H]2CNCC[C@@]23OCc2cc(F)c(F)cc23)C2CC2)c1C
remaining at 0.5 h, 1 µM [8]: 1%
remaining at 2 h, 10 µM [9]: 8%
remaining at 0.5 h, 1 µM [10]: 0%

O=C([C@H]1CNCC[C@@]12OCc1cc(F)c(F)cc12)N(Cc1cccc(C(F)(F)F)c1Cl)C1CC1
remaining at 1 h, 10 µM [11]: 50%

COCCCc1cc(CCCN2CCOCC2)c(Cl)c(CN(C(=O)[C@H]2CNCC[C@@]23OCc2cc(F)c(F)cc23)C2CC2)c1
remaining at 0.5 h, 1 µM [8]: 51%
remaining at 0.5 h, 1 µM [12]: 10%
remaining at 0.5 h, 1 µM [13]: 43%
remaining at 0.5 h, 1 µM [10]: 53%

COCCCc1cc(CCCN2CCOCC2)c(Cl)c(CN(C(=O)[C@H]2CNCC[C@@]23OCc2cc(F)c(F)cc23)C2CC2)c1.Cl.Cl.Cl
bioavailability [14]: 1%
clearance [15]: 47 mL/min/kg
half-life [16]: 5 h
AUC [17]: 0.01 µM·h
AUC [18]: 0.37 µM·h
Vd [19]: 45 L/kg
half-life [20]: 10 h
clearance [21]: 73 mL/min/kg
bioavailability [2]: 23%
bioavailability [22]: 1%
AUC [23]: 0.01 µM·h
Vd [24]: 73 L/kg
half-life [25]: 5.3 h
clearance [26]: 66 mL/min/kg
Vd [27]: 24 L/kg
